Legend:
[1] = Inhibition of NS5A in HCV genotype 1a assessed as decrease in viral replication
[2] = Inhibition of NS5A Y93H mutant in HCV genotype 1a assessed as decrease in viral replication
[3] = Inhibition of NS5A in HCV genotype 2b assessed as decrease in viral replication
[4] = Inhibition of NS5A in HCV genotype 3a assessed as decrease in viral replication
[5] = Inhibition of NS5A in HCV genotype 4a assessed as decrease in viral replication
[6] = Inhibition of NS5A in HCV genotype 1b assessed as decrease in viral replication
[7] = Inhibition of NS5A in HCV genotype 2a assessed as decrease in viral replication
[8] = Inhibition of NS5A L31V mutant in HCV genotype 1a assessed as decrease in viral replication

COC(=O)N[C@H](C(=O)N1CCC[C@H]1c1ncc(-c2ccc3c(ccc4c(=O)c5cc(-c6cnc([C@@H]7CCCN7C(=O)[C@@H](NC(=O)OC)C(C)C)[nH]6)ccc5oc43)c2)[nH]1)C(C)C
EC50 [1]: 20 pM
EC50 [2]: 66 nM

COC(=O)N[C@H](C(=O)N1CCC[C@H]1c1ncc(-c2ccc3c(c2)Oc2ccc4cc(-c5cnc([C@@H]6CCCN6C(=O)[C@@H](NC(=O)OC)C(C)C)[nH]5)ccc4c2C3(C)C)[nH]1)C(C)C
EC50 [3]: 11 nM
EC50 [1]: 2.9 pM
EC50 [2]: 18 nM

CC[C@@H]1c2ccc(-c3cnc([C@@H]4CCCN4C(=O)[C@@H](NC(=O)OC)C4CCOCC4)[nH]3)cc2Oc2ccc3cc(-c4cnc([C@@H]5CCCN5C[C@@H](NC(=O)OC)C5CCOCC5)[nH]4)ccc3c21
EC50 [3]: 0.3 nM
EC50 [4]: 0.2 nM
EC50 [1]: 10 pM
EC50 [2]: 0.8 nM
EC50 [5]: 10 pM
EC50 [6]: 4 pM

COC(=O)N[C@H](C(=O)N1C[C@H](F)C[C@H]1c1ncc(-c2ccc3c(ccc4oc5cc(-c6cnc([C@@H]7C[C@@H](F)CN7C(=O)[C@@H](NC(=O)OC)C(C)C)[nH]6)ccc5c(=O)c43)c2)[nH]1)C(C)C
EC50 [3]: 90 nM
EC50 [4]: > 1 nM
EC50 [1]: 29 pM
EC50 [2]: 1.2 nM
EC50 [6]: 4.5 pM

COC(=O)N[C@H](C(=O)N1CCC[C@H]1c1ncc(-c2ccc3c(c2)Oc2ccc4cc(-c5cnc([C@@H]6CCCN6C(=O)[C@@H](NC(=O)OC)C(C)C)[nH]5)ccc4c2[C@@H]3C)[nH]1)C(C)C
EC50 [3]: 37 nM
EC50 [4]: 1.4 nM
EC50 [1]: 4.6 pM
EC50 [2]: 11 nM
EC50 [6]: 3.6 pM

COC(=O)N[C@H](C(=O)N1CCC[C@H]1c1ncc(-c2ccc3c(c2)Oc2ccc4cc(-c5cnc([C@@H]6CCCN6C[C@@H](NC(=O)OC)C6CCOCC6)[nH]5)ccc4c2C3(C)C)[nH]1)C1CCOCC1
EC50 [3]: 0.3 nM
EC50 [4]: 0.08 nM
EC50 [1]: 2 pM
EC50 [2]: 0.7 nM
EC50 [5]: 6 pM
EC50 [6]: 4 pM

CCC1c2ccc(-c3cnc([C@@H]4CCCN4C(=O)[C@@H](NC(=O)OC)C(C)C)[nH]3)cc2Oc2ccc(-c3cnc([C@@H]4CCCN4C(=O)[C@@H](NC(=O)OC)C(C)C)[nH]3)cc21 (some centres not stated)
EC50 [7]: 5 pM
EC50 [4]: 0.07 nM
EC50 [1]: 20 pM
EC50 [2]: 24 nM
EC50 [6]: 4 pM

CCN(CC)[C@@H](C(=O)N1C[C@H](F)C[C@H]1c1ncc(-c2ccc3c(ccc4oc5cc(-c6cnc([C@@H]7C[C@@H](F)CN7C(=O)[C@@H](c7ccccc7)N(CC)CC)[nH]6)ccc5c(=O)c43)c2)[nH]1)c1ccccc1
EC50 [3]: 797 nM
EC50 [4]: 0.026 nM
EC50 [1]: 310 pM
EC50 [2]: 506 nM

CC[C@H]1c2ccc(-c3cnc([C@@H]4CCCN4C(=O)[C@@H](NC(=O)OC)C(C)C)[nH]3)cc2Oc2ccc3cc(-c4cnc([C@@H]5CCCN5C(=O)[C@@H](NC(=O)OC)C(C)C)[nH]4)ccc3c21
EC50 [3]: 0.78 nM
EC50 [4]: 1.1 nM
EC50 [1]: 5 pM
EC50 [2]: 12 nM

COC(=O)N[C@H](C(=O)N1CCC[C@H]1c1ncc(-c2ccc3c(c2)Oc2ccc4cc(-c5cnc([C@@H]6CCCN6C[C@@H](NC(=O)OC)C6CCOCC6)[nH]5)ccc4c2[C@@H]3C)[nH]1)C1CCOCC1
EC50 [3]: 0.5 nM
EC50 [4]: 0.06 nM
EC50 [1]: 5 pM
EC50 [2]: 0.5 nM
EC50 [5]: 4 pM
EC50 [8]: 0.03 nM
EC50 [6]: 6 pM

COC(=O)N[C@H](C(=O)N1CCC[C@H]1c1ncc(-c2ccc3c(=O)c4cc(-c5cnc([C@@H]6CCCN6C(=O)[C@@H](NC(=O)OC)C(C)C)[nH]5)ccc4oc3c2)[nH]1)C(C)C
EC50 [7]: 100 pM
EC50 [1]: 10 pM
EC50 [2]: 1730 nM
EC50 [6]: 2 pM

COC(=O)N[C@H](C(=O)N1CCC[C@H]1c1ncc(-c2ccc3c(ccc4oc5ccc(-c6cnc([C@@H]7CCCN7C(=O)[C@@H](NC(=O)OC)C(C)C)[nH]6)cc5c(=O)c43)c2)[nH]1)C(C)C
EC50 [3]: > 100 nM
EC50 [4]: > 1 nM
EC50 [1]: 200 pM
EC50 [2]: > 100 nM
EC50 [6]: 100 pM

COC(=O)N[C@H](C(=O)N1C[C@H](F)C[C@H]1c1ncc(-c2ccc3c(ccc4oc5cc(-c6cnc([C@@H]7C[C@@H](F)CN7C(=O)[C@@H](NC(=O)OC)C7CCOCC7)[nH]6)ccc5c(=O)c43)c2)[nH]1)C1CCOCC1
EC50 [3]: 3.5 nM
EC50 [4]: 5.8 nM
EC50 [1]: 84 pM
EC50 [2]: 0.18 nM

COC(=O)N[C@H](C(=O)N1CCC[C@H]1c1ncc(-c2ccc3c(c2)C(C)c2ccc4cc(-c5cnc([C@@H]6CCCN6C(=O)[C@@H](NC(=O)OC)C(C)C)[nH]5)ccc4c2O3)[nH]1)C(C)C (some centres not stated)
EC50 [1]: 5.7 pM
EC50 [2]: 49 nM

CCC1(CC)c2ccc(-c3cnc([C@@H]4CCCN4C(=O)[C@@H](NC(=O)OC)C(C)C)[nH]3)cc2Oc2ccc3cc(-c4cnc([C@@H]5CCCN5C(=O)[C@@H](NC(=O)OC)C(C)C)[nH]4)ccc3c21
EC50 [3]: 3.3 nM
EC50 [4]: 0.58 nM
EC50 [1]: 2 pM
EC50 [2]: 4.1 nM

COC(=O)N[C@H](C(=O)N1CCC[C@H]1c1ncc(-c2ccc3c(c2)Oc2ccc4cc(-c5cnc([C@@H]6CCCN6C[C@@H](NC(=O)OC)C6CCOCC6)[nH]5)ccc4c2[C@H]3C)[nH]1)C1CCOCC1
EC50 [3]: 0.02 nM
EC50 [4]: 0.04 nM
EC50 [1]: 4 pM
EC50 [2]: 0.4 nM
EC50 [5]: 9 pM
EC50 [8]: 0.03 nM
EC50 [6]: 4 pM

COC(=O)N[C@H](C(=O)N1CCC[C@H]1c1ncc(-c2ccc3c(ccc4oc5cc(-c6cnc([C@@H]7CCCN7C(=O)[C@@H](NC(=O)OC)C(C)C)[nH]6)ccc5c(=O)c43)c2)[nH]1)C(C)C
EC50 [3]: 14 nM
EC50 [4]: > 1 nM
EC50 [1]: 3 pM
EC50 [2]: 18 nM
EC50 [6]: 3 pM

COC(=O)N[C@H](C(=O)N1CCC[C@H]1c1ncc(-c2ccc3c(F)c4oc5ccc(-c6cnc([C@@H]7CCCN7C(=O)[C@@H](NC(=O)OC)C(C)C)[nH]6)cc5c(=O)c4cc3c2)[nH]1)C(C)C
EC50 [3]: > 100 nM
EC50 [4]: > 1 nM
EC50 [1]: > 1000 pM
EC50 [2]: > 100 nM
EC50 [6]: > 1000 pM

CCC1(CC)c2ccc(-c3cnc([C@@H]4CCCN4C(=O)[C@@H](NC(=O)OC)C(C)C)[nH]3)cc2Oc2cc3ccc(-c4cnc([C@@H]5CCCN5C(=O)[C@@H](NC(=O)OC)C(C)C)[nH]4)cc3cc21
EC50 [3]: 4.5 nM
EC50 [4]: 1.1 nM
EC50 [1]: 2 pM
EC50 [2]: 3.3 nM

CC[C@H]1c2ccc(-c3cnc([C@@H]4CCCN4C(=O)[C@@H](NC(=O)OC)C4CCOCC4)[nH]3)cc2Oc2ccc3cc(-c4cnc([C@@H]5CCCN5C[C@@H](NC(=O)OC)C5CCOCC5)[nH]4)ccc3c21
EC50 [4]: 0.03 nM
EC50 [1]: 4 pM
EC50 [2]: 0.2 nM

COC(=O)N[C@H](C(=O)N1CCC[C@H]1c1ncc(-c2ccc3c(ccc4oc5cc(-c6cnc([C@@H]7CCCN7C(=O)[C@@H](NC(=O)OC)C7CCOCC7)[nH]6)ccc5c(=O)c43)c2)[nH]1)C1CCOCC1
EC50 [3]: 0.48 nM
EC50 [4]: 0.72 nM
EC50 [1]: 41 pM
EC50 [2]: 2 nM

COC(=O)N[C@H](C(=O)N1CCC[C@H]1c1ncc(-c2ccc3c(c2)Oc2ccc4cc(-c5cnc([C@@H]6CCCN6C(=O)[C@@H](NC(=O)OC)C(C)C)[nH]5)ccc4c2[C@H]3C)[nH]1)C(C)C
EC50 [3]: 1.9 nM
EC50 [4]: 0.72 nM
EC50 [1]: 2.2 pM
EC50 [2]: 7.2 nM
EC50 [6]: 1.6 pM

CC[C@@H]1c2ccc(-c3cnc([C@@H]4CCCN4C(=O)[C@@H](NC(=O)OC)C(C)C)[nH]3)cc2Oc2ccc3cc(-c4cnc([C@@H]5CCCN5C(=O)[C@@H](NC(=O)OC)C(C)C)[nH]4)ccc3c21
EC50 [3]: 13 nM
EC50 [4]: 1.7 nM
EC50 [1]: 2.7 pM
EC50 [2]: 15 nM

COC(=O)N[C@H](C(=O)N1CCC[C@H]1c1nc(-c2ccc3c(c2)O[C@@H](c2ccccc2)n2c-3cc3cc(-c4c[nH]c([C@@H]5CCCN5C(=O)[C@@H](NC(=O)OC)C(C)C)n4)ccc32)c[nH]1)C(C)C [Elbasvir]
EC50 [7]: 3 pM
EC50 [4]: 0.02 nM
EC50 [1]: 4 pM
EC50 [6]: 3 pM

Reference: BindingDB's records for doi:10.1016/j.bmcl.2019.01.031 (Merck, 2019)
